The target of one assay is T1, CFTR ΔF508 mutant (Homo sapiens, UniProt P13569, DEL508-508).
T1 construct: expressed in transfected cells; host or cells: CFBE41o- cells, adenoviral transduction
Put plainly: YFP-halide influx assay for the CFTR-ΔF508 mutation (CFBE41o- cells). The following applies: forskolin 10.67 μM; for EC50: from (1−F/F0) vs concentration plot. It is filed as cell-based. A digest of the protocol: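 CFBE41o- cells transduced with adenovirus expressing CFTR ΔF508 and halide-sensitive YFP H148Q/I152L/F47L, then held 24 h at 27° C or with a CFTR modulator 24 h at 37° C. Iodide-induced quench recorded 2 min; EC50 from (1−F/F0) at 36 s versus concentration.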

The target of a further assay is T2, CFTR G551D mutant (Homo sapiens, UniProt P13569, G551D).
T2 construct: expressed in transfected cells; host or cells: HEK293 cells, reverse transfection with plasmids
Put plainly: YFP-halide influx assay for the CFTR-G551D mutation (HEK293 cells). It is filed as cell-based. To be noted: forskolin 10.67 μM. A digest of the protocol: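 HEK293 cells reverse-transfected with CFTR G551D and halide-sensitive YFP (H148Q/I152L/F47L), expressed 24 h at 37 °C. YFP fluorescence quenching recorded for 7 s after I⁻ injection. Response = 1−F/F0; EC50 derived from 1−F/F0 vs compound concentration.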

Where only a bound is given, the exact number is not on record here.

One may read the EC50 as the midpoint of the concentration-response curve. High values mean lower potency in that assay, low ones higher potency in that assay.

T1 sequence (P13569 with tags, fused parts or gaps DEL508-508): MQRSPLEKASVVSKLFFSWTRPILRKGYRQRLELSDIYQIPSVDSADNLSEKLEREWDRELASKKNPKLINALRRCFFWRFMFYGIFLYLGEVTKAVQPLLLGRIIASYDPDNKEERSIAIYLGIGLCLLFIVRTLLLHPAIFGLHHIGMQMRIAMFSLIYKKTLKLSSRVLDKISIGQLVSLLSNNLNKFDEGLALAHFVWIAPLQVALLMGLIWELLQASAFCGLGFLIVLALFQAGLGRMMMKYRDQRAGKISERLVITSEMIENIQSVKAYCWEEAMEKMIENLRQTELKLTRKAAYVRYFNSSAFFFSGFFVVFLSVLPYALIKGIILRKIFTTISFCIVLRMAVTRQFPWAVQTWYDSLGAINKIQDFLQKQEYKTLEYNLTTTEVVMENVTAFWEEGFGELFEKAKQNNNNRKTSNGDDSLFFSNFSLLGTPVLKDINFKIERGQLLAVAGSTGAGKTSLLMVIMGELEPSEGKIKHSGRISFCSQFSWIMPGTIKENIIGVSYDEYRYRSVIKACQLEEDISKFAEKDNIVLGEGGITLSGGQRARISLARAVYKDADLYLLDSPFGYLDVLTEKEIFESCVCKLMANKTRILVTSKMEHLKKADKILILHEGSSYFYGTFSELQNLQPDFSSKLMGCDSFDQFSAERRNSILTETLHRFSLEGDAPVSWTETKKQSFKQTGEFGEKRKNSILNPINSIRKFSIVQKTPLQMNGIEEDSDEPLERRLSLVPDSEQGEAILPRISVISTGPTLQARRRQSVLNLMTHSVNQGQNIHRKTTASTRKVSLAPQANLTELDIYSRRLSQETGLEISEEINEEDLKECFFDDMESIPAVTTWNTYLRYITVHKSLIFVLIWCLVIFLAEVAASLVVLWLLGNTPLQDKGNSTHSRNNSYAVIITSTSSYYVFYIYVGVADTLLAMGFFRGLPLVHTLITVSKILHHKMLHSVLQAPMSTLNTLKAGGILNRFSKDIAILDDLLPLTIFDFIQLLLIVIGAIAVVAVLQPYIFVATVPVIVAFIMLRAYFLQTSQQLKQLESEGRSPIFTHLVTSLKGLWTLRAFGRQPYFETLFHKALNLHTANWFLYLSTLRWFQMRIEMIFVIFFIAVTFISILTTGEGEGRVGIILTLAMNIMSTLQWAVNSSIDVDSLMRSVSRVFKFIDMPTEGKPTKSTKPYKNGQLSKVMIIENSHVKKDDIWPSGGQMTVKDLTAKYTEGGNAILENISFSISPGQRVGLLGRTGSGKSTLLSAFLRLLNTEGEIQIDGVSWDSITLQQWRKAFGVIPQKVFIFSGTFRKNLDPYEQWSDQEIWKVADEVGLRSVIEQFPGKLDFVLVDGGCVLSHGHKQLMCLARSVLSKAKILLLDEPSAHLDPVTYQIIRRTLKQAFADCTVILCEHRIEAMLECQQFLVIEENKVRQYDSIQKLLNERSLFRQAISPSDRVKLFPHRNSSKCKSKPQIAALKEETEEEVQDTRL
T2 sequence (P13569 whole entry G551D): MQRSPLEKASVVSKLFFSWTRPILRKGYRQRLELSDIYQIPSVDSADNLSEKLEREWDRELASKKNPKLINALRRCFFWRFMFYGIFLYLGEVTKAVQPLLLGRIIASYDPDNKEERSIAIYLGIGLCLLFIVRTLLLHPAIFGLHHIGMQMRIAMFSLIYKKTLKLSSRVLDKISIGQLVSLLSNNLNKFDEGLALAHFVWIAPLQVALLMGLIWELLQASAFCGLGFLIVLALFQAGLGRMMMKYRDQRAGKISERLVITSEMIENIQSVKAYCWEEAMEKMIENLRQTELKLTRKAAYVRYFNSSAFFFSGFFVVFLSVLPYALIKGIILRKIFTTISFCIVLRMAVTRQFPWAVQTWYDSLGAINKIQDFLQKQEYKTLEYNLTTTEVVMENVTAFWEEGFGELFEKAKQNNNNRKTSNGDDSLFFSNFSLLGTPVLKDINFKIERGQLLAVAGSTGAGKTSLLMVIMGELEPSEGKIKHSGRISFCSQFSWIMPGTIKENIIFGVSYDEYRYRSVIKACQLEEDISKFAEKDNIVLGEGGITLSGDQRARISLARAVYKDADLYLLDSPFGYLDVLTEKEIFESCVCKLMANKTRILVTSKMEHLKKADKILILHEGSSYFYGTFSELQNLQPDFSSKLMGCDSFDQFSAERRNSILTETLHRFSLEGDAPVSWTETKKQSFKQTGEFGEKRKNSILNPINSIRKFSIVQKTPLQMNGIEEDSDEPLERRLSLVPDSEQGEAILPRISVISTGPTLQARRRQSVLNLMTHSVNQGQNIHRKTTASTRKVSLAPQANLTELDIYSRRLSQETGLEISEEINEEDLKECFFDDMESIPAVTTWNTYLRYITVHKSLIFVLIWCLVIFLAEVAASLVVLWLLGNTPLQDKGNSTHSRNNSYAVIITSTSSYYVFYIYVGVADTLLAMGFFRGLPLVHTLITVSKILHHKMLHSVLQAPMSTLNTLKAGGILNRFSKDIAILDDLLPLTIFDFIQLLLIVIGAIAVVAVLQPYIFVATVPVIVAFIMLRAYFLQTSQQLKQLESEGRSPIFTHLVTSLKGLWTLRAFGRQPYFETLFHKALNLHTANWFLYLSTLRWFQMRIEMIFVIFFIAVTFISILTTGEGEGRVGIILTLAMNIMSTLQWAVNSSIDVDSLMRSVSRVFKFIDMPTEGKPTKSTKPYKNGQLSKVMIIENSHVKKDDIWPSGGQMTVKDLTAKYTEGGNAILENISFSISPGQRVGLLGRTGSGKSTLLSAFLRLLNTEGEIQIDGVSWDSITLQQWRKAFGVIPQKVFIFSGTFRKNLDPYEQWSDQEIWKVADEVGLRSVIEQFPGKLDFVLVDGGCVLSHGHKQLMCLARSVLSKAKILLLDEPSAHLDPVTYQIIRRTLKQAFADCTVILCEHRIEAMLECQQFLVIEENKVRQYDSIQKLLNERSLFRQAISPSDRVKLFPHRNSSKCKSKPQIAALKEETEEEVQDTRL

For the compound `Nc1cc(S(=O)(=O)N2CCC(OC(F)(F)F)CC2)cnc1C(=O)NCC(O)C(F)(F)F` (stereo not drawn) [Compound 198, 3-amino-N-(3,3,3-trifluoro-2-hydroxypropyl)-5-{[4-(trifluoromethoxy)piperidin-1-yl]sulfonyl}pyridine-2-carboxamide], at CFTR ΔF508 mutant, the “% Activation” value stood at 107.0% and the midpoint of the response, the EC50, lay at 0.0078 µM. Further, at CFTR G551D mutant, the “% Activation” value came out at 75.2% and a half-maximal response (EC50) required 0.756 µM.

As for `Nc1cc(S(=O)(=O)c2ccc(OC(F)(F)F)cc2)cnc1C(=O)NCCN1CCOCC1` [Compound 9, 3-amino-N-[2-(morpholin-4-yl)ethyl]-5-{[4-(trifluoromethoxy)phenyl]sulfonyl}pyridine-2-carboxamide], on CFTR ΔF508 mutant, the “% Activation” value was found to be 97.5% and it took 0.161 µM to reach a half-maximal effect (EC50). In addition, on CFTR G551D mutant, the “% Activation” value stood at 59.5% and the EC50 was more than 3.33 µM.

Consider `Nc1cc(S(=O)(=O)c2ccc(OC(F)(F)F)cc2)cnc1C(=O)NCCC1OCCO1` [Compound 147, 3-amino-N-[2-(1,3-dioxolan-2-yl)ethyl]-5-{[4-(trifluoromethoxy)phenyl]sulfonyl}pyridine-2-carboxamide], for which, at CFTR ΔF508 mutant, the “% Activation” value is given as 105.5% and the midpoint of the response, the EC50, lay at 0.0409 µM. At CFTR G551D mutant, the “% Activation” value is on record as 69.0% and a half-maximal response (EC50) required 1.28 µM.

Regarding `CC1(CCNC(=O)c2ncc(S(=O)(=O)c3ccc(OC(F)(F)F)cc3)cc2N)CC1` [Compound 124, 3-amino-N-[2-(1-methylcyclopropyl)ethyl]-5-{[4-(trifluoromethoxy)phenyl]sulfonyl}pyridine-2-carboxamide], on CFTR ΔF508 mutant, the “% Activation” value is recorded as 104.0% and the EC50 was determined as 0.1 µM. Also, at CFTR G551D mutant, the “% Activation” value was 57.0% and the response was half-maximal at 0.824 µM (EC50).

Regarding `Nc1cc(S(=O)(=O)c2ccc(OC(F)(F)F)cc2)cnc1C(=O)NC[C@@H](O)COCC1CC1` [Compound 251, 3-amino-N-[(2R)-3-(cyclopropylmethoxy)-2-hydroxypropyl]-5-{[4-(trifluoromethoxy)phenyl]sulfonyl}pyridine-2-carboxamide], the “% Activation” value at CFTR ΔF508 mutant was found to be 110.0%; on CFTR G551D mutant it was 93.3%. The figures for the EC50 at CFTR ΔF508 mutant and at CFTR G551D mutant were 0.0163 µM and 0.919 µM, respectively.

On to `Nc1cc(S(=O)(=O)c2ccccc2OC(F)(F)F)cnc1C(=O)N[C@@H]1COCC[C@@H]1O` (racemic) [Compound 83, rac-3-amino-N-[(3R,4S)-4-hydroxytetrahydro-2H-pyran-3-yl]-5-{[2-(trifluoromethoxy)phenyl]sulfonyl}pyridine-2-carboxamide], for which, on CFTR ΔF508 mutant, the “% Activation” value was 98.3% and the response was half-maximal at 0.0063 µM (EC50). For the same compound, on CFTR G551D mutant, the “% Activation” value is 90.4% and the EC50 turned out to be 1.2 µM.

With `CN1CCC(O)(CNC(=O)c2ncc(S(=O)(=O)c3ccc(C(F)(F)F)cc3)cc2N)CC1` [Compound 230, 3-amino-N-[(4-hydroxy-1-methylpiperidin-4-yl)methyl]-5-{[4-(trifluoromethyl)phenyl]sulfonyl}pyridine-2-carboxamide], on CFTR ΔF508 mutant, the “% Activation” value is 12.4% and the EC50 is more than 2 µM. In addition, at CFTR G551D mutant, the “% Activation” value was determined as 1.5% and the EC50 was more than 10 µM.

Consider `Nc1cc(S(=O)(=O)c2ccc(OC(F)(F)F)cc2F)cnc1C(=O)NC[C@H]1CCOC1` [Compound 115, 3-amino-5-{[2-fluoro-4-(trifluoromethoxy)phenyl]sulfonyl}-N-[(3R)-tetrahydrofuran-3-ylmethyl]pyridine-2-carboxamide], for which, at CFTR ΔF508 mutant, the “% Activation” value was determined as 102.3% and the EC50 turned out to be 0.0349 µM. In addition, on CFTR G551D mutant, the “% Activation” value is listed as 40.6% and the EC50 turned out to be 0.9 µM.

Take `Nc1cc(S(=O)(=O)c2ccc(C(F)(F)F)cc2F)cnc1C(=O)N1CC(O)(C(F)(F)F)C1` [Compound 112, (3-amino-5-{[2-fluoro-4-(trifluoromethyl)phenyl]sulfonyl}pyridin-2-yl)[3-hydroxy-3-(trifluoromethyl)azetidin-1-yl]methanone]: at CFTR ΔF508 mutant, the “% Activation” value amounted to 100.6% and the response was half-maximal at 0.0026 µM (EC50). For the same compound, on CFTR G551D mutant, the “% Activation” value stood at 74.1% and it took 0.157 µM to reach a half-maximal effect (EC50).

With `CC(C)Oc1ccc(S(=O)(=O)c2cnc(C(=O)NCC(O)C(F)(F)F)c(N)c2)cc1` (stereo not drawn) [Compound 237, 3-amino-5-{[4-(propan-2-yloxy)phenyl]sulfonyl}-N-(3,3,3-trifluoro-2-hydroxypropyl)pyridine-2-carboxamide], at CFTR ΔF508 mutant, the “% Activation” value came out at 106.5% and the EC50 was 0.0099 µM. In addition, on CFTR G551D mutant, the “% Activation” value was found to be 69.5% and the EC50 was found to be 0.546 µM.

With `CC(C)OC[C@@H](O)CNC(=O)c1ncc(S(=O)(=O)c2ccc(C(F)(F)F)cc2)cc1N` [Compound 243, 3-amino-N-[(2S)-2-hydroxy-3-(propan-2-yloxy)propyl]-5-{[4-(trifluoromethyl)phenyl]sulfonyl}pyridine-2-carboxamide], at CFTR ΔF508 mutant, the “% Activation” value amounted to 111.5% and a half-maximal effect (EC50) was put at 0.0083 µM. At CFTR G551D mutant, the “% Activation” value was 99.0% and a half-maximal effect (EC50) was put at 0.639 µM.

In the case of `COCCC(C)(O)CNC(=O)c1ncc(S(=O)(=O)c2ccc(C(F)(F)F)cc2)cc1N` (stereo not drawn) [Compound 167, 3-amino-N-(2-hydroxy-4-methoxy-2-methylbutyl)-5-{[4-(trifluoromethyl)phenyl]sulfonyl}pyridine-2-carboxamide], on CFTR ΔF508 mutant, the “% Activation” value is recorded as 98.3% and the EC50 was found to be 0.0417 µM. Also, at CFTR G551D mutant, the “% Activation” value is listed as 71.5% and the EC50 turned out to be 1.55 µM.

As for `Nc1cc(S(=O)(=O)c2ccc(F)cc2)cnc1C(=O)NCC(O)C(F)(F)F` (stereo not drawn) [Compound 27, 3-amino-5-[(4-fluorophenyl)sulfonyl]-N-(3,3,3-trifluoro-2-hydroxypropyl)pyridine-2-carboxamide], on CFTR ΔF508 mutant, the “% Activation” value is 101.0% and a half-maximal effect (EC50) was put at 0.0101 µM. On CFTR G551D mutant, the “% Activation” value came to 55.0% and the EC50 came out at 1.24 µM.

`Nc1cc(S(=O)(=O)c2ccc(C(F)(F)F)cc2F)cnc1C(=O)NC[C@H]1CCOC1` [Compound 106, 3-amino-5-{[2-fluoro-4-(trifluoromethyl)phenyl]sulfonyl}-N-[(3R)-tetrahydrofuran-3-ylmethyl]pyridine-2-carboxamide]: on CFTR ΔF508 mutant, the “% Activation” value is 99.0% and the EC50 came to 0.0195 µM. Besides, on CFTR G551D mutant, the “% Activation” value was 42.4% and the EC50 is more than 3.33 µM.

Turning to `C[C@H](O)CNC(=O)c1nc(-c2ccc(F)cc2)c(S(=O)(=O)CCO)cc1N` [Compound 262, 3-amino-6-(4-fluorophenyl)-5-[(2-hydroxyethyl)sulfonyl]-N-[(2S)-2-hydroxypropyl]pyridine-2-carboxamide], on CFTR ΔF508 mutant, the “% Activation” value is recorded as 8.9% and the EC50 is more than 1 µM. At CFTR G551D mutant, the “% Activation” value worked out at 5.5% and the EC50 is more than 1 µM.

In the case of `Nc1cc(S(=O)(=O)c2ccc(C(F)(F)F)cc2)cnc1C(=O)NC[C@H]1CCOC1` [Compound 101, 3-amino-N-[(3R)-tetrahydrofuran-3-ylmethyl]-5-{[4-(trifluoromethyl)phenyl]sulfonyl}pyridine-2-carboxamide], at CFTR ΔF508 mutant, the “% Activation” value is 106.5% and the EC50 came out at 0.0642 µM. For the same compound, at CFTR G551D mutant, the “% Activation” value is 71.2% and a half-maximal effect (EC50) was put at 1.58 µM.

Consider `Nc1cc(S(=O)(=O)c2ccc(OC(F)(F)F)cc2)cnc1C(=O)N1CC(CO)C1` [Compound 66, (3-amino-5-{[4-(trifluoromethoxy)phenyl]sulfonyl}pyridin-2-yl)[3-(hydroxymethyl)azetidin-1-yl]methanone], for which the “% Activation” value on CFTR ΔF508 mutant was 106.0%; on CFTR G551D mutant it was 60.8%. Moreover, the EC50 came to 0.0125 µM at CFTR ΔF508 mutant and 1.55 µM on CFTR G551D mutant.

Take `CN(CCC(F)(F)F)S(=O)(=O)c1cnc(C(=O)NCC(O)C(F)(F)F)c(N)c1` (stereo not drawn) [Compound 225, 3-amino-5-[methyl(3,3,3-trifluoropropyl)sulfamoyl]-N-(3,3,3-trifluoro-2-hydroxypropyl)pyridine-2-carboxamide]: at CFTR ΔF508 mutant, the “% Activation” value is recorded as 106.7% and it took 0.0309 µM to reach a half-maximal effect (EC50). Further, at CFTR G551D mutant, the “% Activation” value was determined as 44.2% and the EC50 was 2.21 µM.

For `CC[C@@H](CO)NC(=O)c1ncc(S(=O)(=O)c2ccc(OC(F)(F)F)cc2)cc1N` [Compound 142, 3-amino-N-[(2S)-1-hydroxybutan-2-yl]-5-{[4-(trifluoromethoxy)phenyl]sulfonyl}pyridine-2-carboxamide], the entries for the “% Activation” value on CFTR ΔF508 mutant and on CFTR G551D mutant were 97.9% and 44.7%, respectively. Besides, the EC50 at CFTR ΔF508 mutant stood at 0.0119 µM; at CFTR G551D mutant, 0.399 µM.

Take `Nc1cc(S(=O)(=O)c2ccc(F)cc2)cnc1C(=O)NCCC(O)C(F)(F)F` (stereo not drawn) [Compound 72, 3-amino-5-[(4-fluorophenyl)sulfonyl]-N-(4,4,4-trifluoro-3-hydroxybutyl)pyridine-2-carboxamide]: the “% Activation” value at CFTR ΔF508 mutant amounted to 89.3%; at CFTR G551D mutant it was 44.2%. The results for the EC50 at CFTR ΔF508 mutant and at CFTR G551D mutant were 0.0218 µM and more than 3.33 µM, respectively.

For `CC(C)(C)c1ccc(S(=O)(=O)c2cnc(C(=O)NCC(O)C(F)(F)F)c(N)c2)cc1` (stereo not drawn) [Compound 247, 3-amino-5-[(4-tert-butylphenyl)sulfonyl]-N-(3,3,3-trifluoro-2-hydroxypropyl)pyridine-2-carboxamide], the “% Activation” value on CFTR ΔF508 mutant is listed as 114.5%; at CFTR G551D mutant, 98.7%. The EC50 at CFTR ΔF508 mutant worked out at 0.0043 µM; at CFTR G551D mutant, 0.219 µM.

The record behind these values is patent US10047051B2, “Substituted pyridines and method of use” (AbbVie S.á{acute over (.)}r.l., priority 2015, dated 2018).
